Patent publication US8163718B2, “Nucleoside analogues containing phosphonate or phosphonamide groups” (Gilead Sciences, Inc., priority 2008, dated 2012)

How the values were obtained:
Assay in all cases: Cytostatic cell culture assay (GI50), SRB
Assay type in all cases: cell-based
A549 = conditions: Homo sapiens, A549, 120 h; 5 days incubation
Excerpt: (§1) The assay is based on quantification of cell counts by a colorimetric detection of the cell associated proteins. The assay relies on the ability of sulforhodamine B (SRB) to bind to protein components of cells that have been fixed to tissue-culture plates by trichloroacetic acid (TCA). SRB is a bright-pink aminoxanthene dye with two sulfonic groups that bind to basic amino-acid residues under mild acidic conditions, and dissociate under basic conditions. As the binding of SRB is stoichiometric, the amount of dye extracted from stained cells is directly proportional to the cell mass.
(§2) Cell lines: All cell lines were obtained from ATCC (Manassas, Va.). Cultivation media containing Glutamax, and trypsin were purchased from Invitrogen (Carlsbad, Calif.). Doxorubicin, Clofarabine, TCA and SRB were from Sigma-Aldrich (St. Louis, Mo.). Gemcitabine was obtained from Moravek Biochemicals (Brea, Calif.)
(§3) • 1. Trypsinize the sub-confluent cells, count them, and adjust the cell concentrations according to the cell counts listed in Table 1. • 2. Distribute the cells into the 96-well plates in 150 μL of media. Incubate the plates overnight in humidified CO2 incubator at 37° C. • 3. Fix one plate of each cell line with TCA. Discard the cultivation media from the plates by flicking them gently and add 100 ul cold 10% (vol/vol) TCA to each well. Incubate the plates at 4 degree refrigerator for 1 hour. Discard TCA from the plates by flicking them gently. Rinse plates four times in a washing basin containing tap water. Store the plates at room temperature. These plates represent cell counts on day zero. • 4. Prepare a set of medium solutions containing various concentrations of tested compounds by making 5-fold serial dilutions in 96-well plate. Add 50 μL of the diluted compounds per well. Include controls with untreated cells and cells treated with doxorubicin, clofarabine and gemcitabine. • 5. Incubate the plates for 5 days at 37° C. • 6. Fix the plates with TCA. Discard the cultivation media from the plates by flicking them gently and add 100 ul cold 10% (vol/vol) TCA to each well. Incubate the plates at 4 degree refrigerator for 1 hour. Discard TCA from the plates by flicking them gently. Rinse plates four times in a washing basin containing tap water. • 7. Remove excess water by tapping the plates face down, gently on a paper towel. Allow the plates to air-dry at room temperature. • 8. Add 100 ul of 0.057% SRB solution in 1% (vol/vol) acetic acid to each well of the plates fixed with TCA on day zero and five. Leave at room temperature for 30 minutes. • 9. Flick the plates gently to discard SRB. Rinse the plates four times with 1% (vol/vol) Acetic Acid. • 10. Store the plates at 37 degree incubator to facilitate faster drying. • 11. Once the plates are completely dry, add 200 ul of 10 mM Tris base solution (pH 10.5) to each well. Leave at room temperature for 30 minutes for SRB to solubilize. • 12. Measure the OD at 500 nm in a microplate reader • 13. Calculate the percentage of cell-growth inhibition using the next formula: % of control cell growth=100×(ODsample−mean ODday0)/(ODneg control−mean ODday0)
(§4) For GI50 determination, plot a dose-response curve between the compound concentration and percent of growth inhibition. GI50 values can be derived by fitting dose-response curves using sigmoidal dose response equation.

BT-549 = conditions: Homo sapiens, BT-549, 120 h; 5 days incubation
Excerpt: as §1, §2, §3, §4

Du-145 = conditions: Homo sapiens, DU-145, 120 h; 5 days incubation
Excerpt: as §1, §2, §3, §4

HCT-116 = conditions: Homo sapiens, HCT-116, 120 h; 5 days incubation
Excerpt: as §1, §2, §3, §4

HCT-15 = conditions: Homo sapiens, HCT-15, 120 h; 5 days incubation
Excerpt: as §1, §2, §3, §4

Hs-578 = conditions: Hs578, 120 h; 5 days incubation
Excerpt: as §1, §2, §3, §4

NCI-H23 = conditions: Homo sapiens, NCI-H23, 120 h; 5 days incubation
Excerpt: as §1, §2, §3, §4

PC3 = conditions: Homo sapiens, PC-3, 120 h; 5 days incubation
Excerpt: as §1, §2, §3, §4

GI50 (A549) [nM]	GI50 (BT-549) [nM]	GI50 (Du-145) [nM]	GI50 (HCT-116) [nM]	GI50 (HCT-15) [nM]	GI50 (NCI-H23) [nM]	GI50 (PC3) [nM]	Compound	GI50 (Hs-578) [nM]
530	167	27	264	2350	30	111	CCCOc1nc(N)nc2c1ncn2CCOCP(=O)(N1CCC[C@H]1C(=O)OCc1ccccc1)N1CCC[C@H]1C(=O)OCc1ccccc1 [Example 20]	132
168	45	2	118	534	10	40	CCCOc1nc(N)nc2c1ncn2CCOCP(=O)(OCOC(=O)OC(C)C)OCOC(=O)OC(C)C [Example 59]	61
1250	16	3	154	9100	227	183	CCOC(=O)[C@@H]1CCCC1P(=O)(COCCn1cnc2c(OC3CC3)nc(N)nc21)N1CCC[C@H]1C(=O)OCC (some centres unmarked) [Example 44]	26
451	269	8	372	8300	22	113	CCOC(=O)[C@H](C)NP(=O)(COCCn1cnc2c(OC3CCC3)nc(N)nc21)N[C@@H](C)C(=O)OCC [Example 45]	174
450	15	2	43	1490	2	16	CCCCOC(=O)[C@@H]1CCCN1P(=O)(COCCn1cnc2c(OCCC)nc(N)nc21)N1CCC[C@H]1C(=O)OCCCC [Example 25]	8
4	53	1	5	467	1	10	CCCOc1nc(N)nc2c1ncn2CCOCP(=O)(N[C@@H](Cc1ccccc1)C(=O)OCC(C)C)N[C@@H](Cc1ccccc1)C(=O)OCC(C)C [Example 19]	5
317	7	1	28	2470	3	11	CCCOC(=O)[C@@H]1CCCN1P(=O)(COCCn1cnc2c(OCCC)nc(N)nc21)N1CCC[C@H]1C(=O)OCCC [Example 23]	4
2820	2710	536	5400	4140	675	2830	Nc1nc(OC2CC2)c2ncn(CCOCP(=O)(O)O)c2n1 [Example 8, [2-(2-Amino-6-cyclopropoxy-purin-9-yl)-ethoxymethyl]-phosphonic acid]	3340
2420	4870	475	5900	4650	589	3700	COc1nc(N)nc2c1ncn2CCOCP(=O)(O)O [Example 2, [2-(2-Amino-6-methoxy-purin-9-yl)-ethoxymethyl]-phosphonic acid]	2010
5	17	1	4	336	2	6	CCCCOC(=O)[C@H](Cc1ccccc1)NP(=O)(COCCn1cnc2c(OCCC)nc(N)nc21)N[C@@H](Cc1ccccc1)C(=O)OCCCC [Example 17]	5
91	42	2	79	766	5	52	COc1nc(N)nc2c1ncn2CCOCP(=O)(OCOC(=O)OC(C)C)OCOC(=O)OC(C)C [Example 60]	22
187	145	5	140	8900	14	28	CCCCOc1nc(N)nc2c1ncn2CCOCP(=O)(N[C@@H](C)C(=O)OCC)N[C@@H](C)C(=O)OCC [Example 35]	46
736	573	47	859	> 10000	28	381	CCOC(=O)[C@H](C)NP(=O)(COCCn1cnc2c(OC)nc(N)nc21)N[C@@H](C)C(=O)OCC [Example 28]	380

The remaining lines, values behind:

Compound	GI50 (A549) [nM]	GI50 (BT-549) [nM]	GI50 (Du-145) [nM]	GI50 (HCT-116) [nM]	GI50 (HCT-15) [nM]	GI50 (NCI-H23) [nM]	GI50 (PC3) [nM]	GI50 (Hs-578) [nM]
CCOC(=O)[C@H](C)NP(=O)(COCCn1cnc2c(OC3CCCCC3)nc(N)nc21)N[C@@H](C)C(=O)OCC [Example 39]	3190	2650	102	1480	> 10000	198	141	697
CCCOc1nc(N)nc2c1ncn2CCOCP(=O)(Oc1ccc(Cl)cc1)N1CCC[C@H]1C(=O)OCC (some centres unmarked) [Example 62]	1870	4440	1	2790	10000	49	44	1070
CCCOc1nc(N)nc2c1ncn2CCOCP(=O)(N[C@@H](C)C(=O)OC(C)C)N[C@@H](C)C(=O)OC(C)C [Example 16]	736	1830	67	1320	> 10000	92	591	870
CCCCOc1nc(N)nc2c1ncn2CCOCP(=O)(O)O [Example 4, [2-(2-Amino-6-butoxy-purin-9-yl)-ethoxymethyl]-phosphonic acid]	4540	3760	235	3130	2980	633	1440	3320
CCCOc1nc(N)nc2c1ncn2CCOCP(=O)(Oc1ccccc1)N1CCC[C@H]1C(=O)OCC (some centres unmarked) [Example 57]	2420	1120	372	1610	5200	241	696	1110
CCOC(=O)[C@@H]1CCCN1P(=O)(COCCn1cnc2c(OC3CCCCC3)nc(N)nc21)N1CCC[C@H]1C(=O)OCC [Example 40]	8800	1780	74	2440	> 10000	252	109	276
CCOC(=O)[C@H](C)NP(=O)(COCCn1cnc2c(OC(C)C)nc(N)nc21)N[C@@H](C)C(=O)OCC [Example 33]	762	423	18	652	> 10000	19	190	243
CCCOc1nc(N)nc2c1ncn2CCOCP(=O)(O)O [Example 1, [2-(2-Amino-6-propoxy-purin-9-yl)-ethoxymethyl]-phosphonic acid]	1240	900	76	1100	886	287	1100	3810
Nc1nc(OC2CCC2)c2ncn(CCOCP(=O)(O)O)c2n1 [Example 9, [2-(2-Amino-6-cyclobutoxy-purin-9-yl)-ethoxymethyl]-phosphonic acid]	1830	1550	77	1720	1220	359	955	1550
